According to patent publication US3965109A, “Certain aryl amino pyridines” (priority 1971, dated 1976):

How the values were obtained:
Format in all cases: in vivo
[1] = system: Puccinia recondita (wheat); test: Fungicidal test against foliar disease A (foliage spray plus soil drench); conditions: 100 ppm spray and drench; 10 days
[2] = system: Plasmopara viticola (vine); test: Fungicidal test against foliar disease C (foliage spray plus soil drench); conditions: 100 ppm spray and drench; 10 days
Uncinula necator (vine) = test: Fungicidal test against foliar disease D (foliage spray plus soil drench); conditions: 100 ppm spray and drench; 10 days
[3] = system: Tetranychus telarius (red spider mites, adults); test: Pest toxicity test; conditions: 0.1% by weight; French bean; 3 days
[4] = system: Tetranychus telarius (red spider mites, eggs); test: Pest toxicity test; conditions: 0.1% by weight; French bean; 3 days
Aphis fabae = test: Pest toxicity test; conditions: 0.1% by weight; broad bean; 2 days
Megoura viceae = test: Pest toxicity test; conditions: 0.1% by weight; broad bean; 2 days
[5] = system: Aedes aegypti (mosquito larvae); test: Pest toxicity test; conditions: 0.01% by weight; water; 1 day
[6] = system: Aedes aegypti (mosquito adults); test: Pest toxicity test; conditions: 0.01% by weight; plywood; 1 day
[7] = system: Musca domestica (houseflies); test: Pest toxicity test, contact test; conditions: 0.1% by weight; milk/sugar; 2 days; flies sprayed directly
[8] = system: Pieris brassicae (cabbage white caterpillars); test: Pest toxicity test; conditions: 0.1% by weight, 2 days
[9] = system: Plutella maculipennis (diamond back moth larvae); test: Pest toxicity test; conditions: 0.1% by weight; mustard/paper; 2 days
[10] = system: Phaedon cochleariae (mustard beetles); test: Pest toxicity test; conditions: 0.1% by weight; mustard/paper; 2 days
Lettuce = test: Herbicidal test, pre- and post-emergence; conditions: 10 kg/ha; scale 0 to 3 (complete kill)
Tomato = test: Herbicidal test, pre- and post-emergence; conditions: 10 kg/ha; scale 0 to 3 (complete kill)
Wheat = test: Herbicidal test, pre- and post-emergence; conditions: 10 kg/ha; scale 0 to 3 (complete kill)
Maize = test: Herbicidal test, pre- and post-emergence; conditions: 10 kg/ha; scale 0 to 3 (complete kill)
Sugar beet = test: Further herbicidal test, various rates; conditions: scale 0 to 5 (complete kill)
Kale = test: Further herbicidal test, various rates; conditions: scale 0 to 5 (complete kill)
Carrot = test: Further herbicidal test, various rates; conditions: scale 0 to 5 (complete kill)
Pea = test: Further herbicidal test, various rates; conditions: scale 0 to 5 (complete kill)
Onion = test: Further herbicidal test, various rates; conditions: scale 0 to 5 (complete kill)
Barley = test: Further herbicidal test, various rates; conditions: scale 0 to 5 (complete kill)
Rice = test: Further herbicidal test, various rates; conditions: scale 0 to 5 (complete kill)
Oat = test: Further herbicidal test, various rates; conditions: scale 0 to 5 (complete kill)
[11] = system: larvae of the blowfly (Lucilia serrata); test: Insecticidal test on blowfly larvae on treated filter paper; conditions: scale of 1 to 6; filter paper with horse serum
[12] = system: larvae of the tick Boophilus microplus; test: Similar test on tick larvae on filter paper without horse serum

Q: With `O=[N+]([O-])c1ccc(Nc2c(F)c(F)nc(F)c2F)c(C(F)(F)F)c1` [Compound 28, 4-(4-Nitro-2-trifluoromethylanilino)-tetrafluoropyridine] as the compound, how does the “Amount of disease grading, disease A (Table 4)” value [1] read?
A: Its value is 0 (61 to 100).

Q: And the “Amount of disease grading, disease C (Table 4)” value [2]?
A: Its value is 3 (0 to 5).

Q: What about the “Amount of disease grading, disease D (Table 4)” value (Uncinula necator (vine)) of the same compound?
A: Its value is 3 (0 to 5).

Q: And the “Mortality grading (kill)” value [3]?
A: The value was 3 (3 represents over 90% kill).

Q: What about the “Mortality grading (kill)” value [4] of the same compound?
A: The value was 3 (3 represents over 90% kill).

Q: What about the “Mortality grading (kill)” value (Aphis fabae) of the same compound?
A: Its value is 3 (3 represents over 90% kill).

Q: And the “Mortality grading (kill)” value (Megoura viceae)?
A: The value was 3 (3 represents over 90% kill).

Q: And the “Mortality grading (kill)” value [5]?
A: Its value is 3 (3 represents over 90% kill).

Q: And the “Mortality grading (kill)” value [6]?
A: The value was 3 (3 represents over 90% kill).

Q: What about the “Mortality grading (kill), contact test” value [7] of the same compound?
A: Its value is 3 (3 represents over 90% kill).

Q: And the “Mortality grading (kill)” value [8]?
A: Its value is 3 (3 represents over 90% kill).

Q: What about the “Mortality grading (kill)” value [9] of the same compound?
A: Its value is 3 (3 represents over 90% kill).

Q: And the “Mortality grading (kill)” value [10]?
A: The value was 3 (3 represents over 90% kill).

Q: What about the “Damage to plants, post-emergence” value (Lettuce) of the same compound?
A: Its value is 3.

Q: And the “Damage to plants, pre-emergence” value (Lettuce)?
A: The value was 3.

Q: And the “Damage to plants, post-emergence” value (Tomato)?
A: The value was 3.

Q: What about the “Damage to plants, pre-emergence” value (Tomato) of the same compound?
A: The value was 3.

Q: What about the “Damage to plants, post-emergence” value (Wheat) of the same compound?
A: The value was 1.

Q: And the “Damage to plants, pre-emergence” value (Wheat)?
A: Its value is 3.

Q: What about the “Damage to plants, post-emergence” value (Maize) of the same compound?
A: Its value is 0.

Q: What about the “Damage to plants, pre-emergence” value (Maize) of the same compound?
A: The value was 0.

Q: What about the “Damage to plants, post-emergence” value (Sugar beet; 1 kg/hectare) of the same compound?
A: Its value is 5.

Q: What about the “Damage to plants, pre-emergence” value (Sugar beet; 1 kg/hectare) of the same compound?
A: Its value is 5.

Q: And the “Damage to plants, post-emergence” value (Sugar beet; 5 kg/hectare)?
A: Its value is 5.

Q: What about the “Damage to plants, pre-emergence” value (Sugar beet; 5 kg/hectare) of the same compound?
A: Its value is 5.

Q: What about the “Damage to plants, post-emergence” value (Kale; 1 kg/hectare) of the same compound?
A: The value was 5.

Q: And the “Damage to plants, pre-emergence” value (Kale; 1 kg/hectare)?
A: The value was 4.

Q: And the “Damage to plants, post-emergence” value (Kale; 5 kg/hectare)?
A: The value was 4.

Q: What about the “Damage to plants, pre-emergence” value (Kale; 5 kg/hectare) of the same compound?
A: Its value is 5.

Q: And the “Damage to plants, post-emergence” value (Carrot; 1 kg/hectare)?
A: Its value is 3.

Q: And the “Damage to plants, pre-emergence” value (Carrot; 1 kg/hectare)?
A: The value was 4.

Q: What about the “Damage to plants, post-emergence” value (Carrot; 5 kg/hectare) of the same compound?
A: Its value is 4.

Q: What about the “Damage to plants, pre-emergence” value (Carrot; 5 kg/hectare) of the same compound?
A: Its value is 5.

Q: What about the “Damage to plants, pre-emergence” value (Pea; 1 kg/hectare) of the same compound?
A: Its value is 5.

Q: What about the “Damage to plants, post-emergence” value (Pea; 5 kg/hectare) of the same compound?
A: Its value is 0.

Q: What about the “Damage to plants, pre-emergence” value (Pea; 5 kg/hectare) of the same compound?
A: The value was 5.

Q: And the “Damage to plants, post-emergence” value (Onion; 1 kg/hectare)?
A: Its value is 3.

Q: What about the “Damage to plants, pre-emergence” value (Onion; 1 kg/hectare) of the same compound?
A: Its value is 5.

Q: What about the “Damage to plants, post-emergence” value (Onion; 5 kg/hectare) of the same compound?
A: The value was 0.

Q: And the “Damage to plants, pre-emergence” value (Onion; 5 kg/hectare)?
A: Its value is 5.

Q: And the “Damage to plants, post-emergence” value (Barley; 1 kg/hectare)?
A: The value was 1.

Q: And the “Damage to plants, pre-emergence” value (Barley; 1 kg/hectare)?
A: Its value is 4.

Q: And the “Damage to plants, post-emergence” value (Barley; 5 kg/hectare)?
A: The value was 0.

Q: What about the “Damage to plants, pre-emergence” value (Barley; 5 kg/hectare) of the same compound?
A: Its value is 5.

Q: What about the “Damage to plants, post-emergence” value (Rice; 1 kg/hectare) of the same compound?
A: Its value is 0.

Q: What about the “Damage to plants, pre-emergence” value (Rice; 1 kg/hectare) of the same compound?
A: Its value is 4.

Q: What about the “Damage to plants, post-emergence” value (Rice; 5 kg/hectare) of the same compound?
A: Its value is 0.

Q: What about the “Damage to plants, pre-emergence” value (Rice; 5 kg/hectare) of the same compound?
A: Its value is 5.

Q: What about the “Damage to plants, post-emergence” value (Oat; 1 kg/hectare) of the same compound?
A: Its value is 2.

Q: What about the “Damage to plants, pre-emergence” value (Oat; 1 kg/hectare) of the same compound?
A: The value was 4.

Q: And the “Damage to plants, post-emergence” value (Oat; 5 kg/hectare)?
A: Its value is 0.

Q: And the “Damage to plants, pre-emergence” value (Oat; 5 kg/hectare)?
A: The value was 5.

Q: And the “Activity relative to lindane” value [11]?
A: The value was 6 (6 represents activity 10 times that of the standard).

Q: What about the “times more toxic than lindane” value [12] of the same compound?
A: The value was 10 times.
